Assay in all cases: DTP human tumour cell line panel, 48 h
For test [1], the system named is SK-MEL-28 melanoma.
Test [2] has as its system A498 renal.
In test [3] the test system is SF-539 CNS.
In test [4] the test system is T-47D breast.
For test [5], the system named is SK-OV-3 ovarian.
The subject of test [6] is SK-MEL-2 melanoma.
Test [7] concerns CAKI-1 renal.
Test [8] has as its system MOLT-4 leukemia.
Test [9] relates to ACHN renal.
Test [10] deals with LOX IMVI melanoma.
The test system of test [11] is HOP-92 NSCLC.
The test system of test [12] is MALME-3M melanoma.
Test [13] relates to HCC-2998 colon.
In test [14] the test system is 786-0 renal.

Structures are written as SMILES.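 Where inhibition never reached the appropriate level, the endpoint shown equals the highest concentration tested. Otherwise, values were interpolated linearly from a five-concentration, 48-hour dose response in 96-well plates. At the TGI there is no net growth.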 Where only a bound is given, the exact number is not on record here.

`CN1CCCOC(c2ccc(Cl)cc2)O1` (stereo not given): the TGI in test [1], in [2], in test [3], in test [4], in test [5] and in [6] was > 100 µM throughout. Moreover, the total growth inhibition concentration (TGI) in [7], in test [8], in [9], in test [10], in [11] and in [12] was > 100 µM each time. Further, the TGI in test [13] and in test [14] was > 100 µM throughout.

`CCOC(=O)C(Cc1ccc(O)cc1)Nc1nc(=O)c2c(=O)oc(Cl)cc2o1` (stereo not given): the TGI is 21 µM in [1]; 35.3 µM in [2]; 21.9 µM in test [3]; 25.7 µM in test [4]; 27.7 µM in [5]; 34.3 µM in test [6]. Further, the TGI came out at 16.6 µM in [7]; 10.1 µM in test [8]; 24.7 µM in test [9]; 27.9 µM in test [10]; 25.9 µM in [11]; 16.5 µM in test [12]. Also, the concentration for total growth inhibition (TGI) in test [13] was 17.6 µM; in [14] it was 22.3 µM.

With `O=C1/C(=C\c2cccc(Oc3ccccc3)c2)S(=O)(=O)C(c2ccccc2)N1c1cccc(Cl)c1` (stereo not given), the concentration for total growth inhibition (TGI) in test [1], in [2], in test [3], in [4], in [5] and in test [6] was > 100 µM throughout. Besides, the TGI in [7] is > 100 µM; in test [8] it was > 100 µM; in test [9] it was > 100 µM; in test [10] it was 44.8 µM; in test [11], > 100 µM; in [12], > 100 µM. Further, the TGI in test [13] and in [14] was > 100 µM throughout.

For `COc1cc2c(cc1O)NC(=O)[C@@H]1CCCN1C2=O`, the TGI in [1], in [2], in test [3], in test [4], in test [5] and in [6] was > 100 µM in each case. Further, the total growth inhibition concentration (TGI) in test [7], in test [8], in [9], in test [10], in test [11] and in test [12] was > 100 µM throughout. The concentration for total growth inhibition (TGI) in test [13] and in test [14] was > 100 µM each time.

For the molecule `CC(=O)SC(C[N+](=O)[O-])c1ccc2c(c1)OCO2` (stereo not given), the concentration for total growth inhibition (TGI) is 9.78 µM in test [1]; 18.3 µM in test [2]; 5.14 µM in test [3]; 65.7 µM in test [4]; 18 µM in test [5]; 14.8 µM in test [6]. For the same molecule, the TGI in test [7] came out at 18.6 µM; in test [8] it was 19.9 µM; in [9], 21.9 µM; in test [10], 4.35 µM; in test [11] it was 34.6 µM; in [12], 15.8 µM. Moreover, the TGI in [13] was 3.47 µM; in test [14] it was 8.95 µM.

As to `CC(=O)NC1C(Sc2ncn(C3OC(CO)C(O)C(O)C3NC(C)=O)n2)OC(CO)C(O)C1O` (stereo not given), the TGI in test [1], in test [2], in test [3], in test [4], in test [5] and in test [6] was > 100 µM in each case. The total growth inhibition concentration (TGI) in [7], in test [8], in test [9], in [10], in test [11] and in [12] was > 100 µM throughout. In addition, the TGI in [13] and in test [14] was > 100 µM each time.

Turning to `COC(=O)[C@@H](NC(=O)N(Cc1ccccc1)C[C@H](CC(C)C)NC(=O)[C@@H](NC(=O)OC(C)(C)C)C(C)C)C(C)C`, the total growth inhibition concentration (TGI) in test [1], in test [2], in test [3], in test [4], in test [5] and in test [6] was > 100 µM in each case. The concentration for total growth inhibition (TGI) in test [7], in test [8], in [9], in [10], in test [11] and in test [12] was > 100 µM each time. Besides, the TGI in test [13] and in [14] was > 100 µM throughout.

Turning to `Oc1c(Br)ccc2cccnc12`, the TGI in [1] was > 100 µM; in test [2], 51.8 µM; in test [3], > 50.6 µM; in test [4], 21.1 µM; in test [5], 61.6 µM; in test [6], > 100 µM. For the same molecule, the TGI in test [7] is 60.3 µM; in test [8], > 26.9 µM; in test [9], 55.8 µM; in test [10] it was > 28.5 µM; in test [11], 69.7 µM; in test [12] it was > 64.4 µM. The concentration for total growth inhibition (TGI) in test [13] is > 100 µM; in test [14], > 43.2 µM.

For the molecule `CCOc1cc(NC(C)=O)ccc1C(=O)NNS(=O)(=O)c1ccc(NC(C)=O)cc1`, the total growth inhibition concentration (TGI) in test [1] is > 100 µM; in test [2], > 100 µM; in test [3], > 100 µM; in test [4], > 100 µM; in test [5], > 100 µM; in [6] it was 95.2 µM. For the same molecule, the TGI in [7], in test [8], in [9], in [10], in [11] and in [12] was > 100 µM each time. The concentration for total growth inhibition (TGI) in test [13] and in [14] was > 100 µM throughout.

`O=C1c2c(Br)sc(Br)c2C(=O)C1(O)O`: the TGI is > 100 µM in test [1]; > 100 µM in test [2]; 39.4 µM in [3]; 49.4 µM in test [4]; > 100 µM in test [5]; 86.7 µM in [6]. Further, the total growth inhibition concentration (TGI) is 33.3 µM in test [7]; 93.5 µM in test [8]; > 100 µM in [9]; > 100 µM in test [10]; 34.7 µM in [11]; 34.6 µM in test [12]. Further, the TGI in test [13] and in [14] was > 100 µM each time.

Turning to `CCCCCCCCCCCC(=O)OC[C@@H](C[As](=O)(O)O)OC(=O)CCCCCCCCCCC`, the TGI in [1] was 11.3 µM; in test [2], 24.3 µM; in test [3], 27.8 µM; in test [4], 37.7 µM; in test [5], 26.2 µM; in [6], 7.48 µM. In addition, the TGI was 23.8 µM in test [7]; > 77.2 µM in test [8]; 10.4 µM in [9]; 18.1 µM in test [10]; 4.44 µM in test [11]; 8.84 µM in [12]. Further, the total growth inhibition concentration (TGI) came out at 20.1 µM in test [13] and 26.5 µM in [14].

In the case of `S=C1NCCN1C(=S)Nc1ccccc1`, the total growth inhibition concentration (TGI) in test [1], in [2], in test [3], in test [4], in test [5] and in [6] was > 100 µM throughout. In addition, the total growth inhibition concentration (TGI) in test [7], in [8], in test [9], in test [10], in [11] and in test [12] was > 100 µM each time. In addition, the TGI in [13] and in test [14] was > 100 µM throughout.

Take `Cc1ccnc2c1C(=O)C1=C(OC(C)(C)CC1O)C2=O` (stereo not given): the total growth inhibition concentration (TGI) is 5.16 µM in test [1]; 32 µM in test [2]; 10.4 µM in test [3]; 19.4 µM in [4]; 27.2 µM in test [5]; 8.83 µM in test [6]. Also, the TGI in test [7] was found to be 19 µM; in test [8], 26.9 µM; in test [9], 22.9 µM; in test [10] it was 8.91 µM; in [11] it was 24.6 µM; in test [12], 3.02 µM. The TGI stood at 15.3 µM in [13] and 16.4 µM in test [14].

As to `O=c1cc(NNc2cccc(Cl)c2)[nH]c(=O)[nH]1`, the TGI in test [1], in test [2], in [3], in test [4], in [5] and in test [6] was > 100 µM throughout. The concentration for total growth inhibition (TGI) in test [7] is 36.9 µM; in [8] it was 60.1 µM; in test [9], > 100 µM; in [10], 29.6 µM; in test [11], 35.5 µM; in [12], 30.6 µM. Also, the concentration for total growth inhibition (TGI) in test [13] is > 100 µM; in test [14], 31 µM.

As to `O=C1C=C(Nc2ccc(S(=O)(=O)Nc3nccs3)cc2)c2ccccc2C1=O`, the TGI in test [1] is 45.2 µM; in [2] it was > 100 µM; in test [3] it was 41.2 µM; in test [4], > 100 µM; in test [5], > 100 µM; in [6], 82.4 µM. The concentration for total growth inhibition (TGI) was 82.9 µM in test [7]; > 100 µM in test [8]; 63.5 µM in test [9]; 48.6 µM in test [10]; > 100 µM in test [11]; 48.7 µM in test [12]. In addition, the total growth inhibition concentration (TGI) is 47.3 µM in [13] and > 100 µM in test [14].
